Measurements from ChEMBL document CHEMBL1221210, “A Cdc7 kinase inhibitor restricts initiation of DNA replication and has antitumor activity” (Nat Chem Biol, 2008).
The source made the active and inactive calls. The rule behind the calls is not given here.

Legend:
HCT-15 [1] = test: Induction of cell cycle arrest in human HCT15 cells expressing p53 gene assessed as accumulation at subG1 phase at 0.1 uM after 24hrs by FACS analysis; type: functional
U2OS [2] = test: Antiproliferative activity against human U2OS cells expressing p53 gene after 72 hrs by proliferative assay; type: functional, cell-based
SF-268 [3] = test: Induction of cell cycle arrest in p53 deficient human SF268 cells assessed as accumulation at subG1 phase at 0.1 uM after 24 hrs FACS analysis; type: functional
[4] = Induction of cell cycle arrest in p53 deficient human A2780/E6 cells as accumulation at subG1 phase at 0.1 uM after 24hrs by FACS analysis; type: functional
COLO 205 [5] = test: Antiproliferative activity against p53 deficient human COLO205 cells after 72 hrs; type: functional, cell-based; details: COLO 205, 72 h
SW480 [6] = test: Antiproliferative activity against p53 deficient human SW480 cells after 72 hrs by proliferative assay; type: functional, cell-based; details: SW480, 72 h
SW480 [7] = test: Induction of cell cycle arrest in p53 deficient human SW480 cells assessed as accumulation at subG1 phase at 0.1 uM after 24hrs by FACS analysis; type: functional
A2780 [8] = test: Induction of cell cycle arrest in human A2780 cells expressing p53 gene assessed as accumulation at subG1 phase at 0.1 uM after 24hrs by FACS analysis; type: functional
U2OS [9] = test: Induction of cell cycle arrest in human U2OS cells expressing p53 gene assessed as accumulation at subG1 phase at 0.1 uM after 24hrs by FACS analysis; type: functional
PC-3 [10] = test: Antiproliferative activity against human PC3 cells expressing p53 gene after 72 hrs by proliferative assay; type: functional, cell-based; details: PC-3, 72 h
MCF7 [11] = test: Induction of cell cycle arrest in human MCF7 cells expressing p53 gene assessed as accumulation at subG1 phase at 0.1 uM after 24hrs by FACS analysis; type: functional
PC-3 [12] = test: Induction of cell cycle arrest in human PC3 cells expressing p53 gene assessed as accumulation at subG1 phase at 0.1 uM after 24hrs by FACS analysis; type: functional
Jurkat [13] = test: Antiproliferative activity against p53 deficient human Jurkat cells after 72 hrs by proliferative assay; type: functional, cell-based
COLO 205 [14] = test: Induction of cell cycle arrest in p53 deficient human COLO205 cells assessed as accumulation at subG1 phase at 0.1 uM after 24hrs by FACS analysis; type: functional
SF-268 [15] = test: Antiproliferative activity against p53 deficient human SF268 cells after 72 hrs; type: functional, cell-based; details: SF-268, 72 h
OVCAR-8 [16] = test: Induction of cell cycle arrest in p53 deficient human OVCAR8 cells assessed as accumulation at subG1 phase at 0.1 uM after 24hrs by FACS analysis; type: functional
HCT-15 [17] = test: Antiproliferative activity against human HCT15 cells expressing p53 gene after 72 hrs by proliferative assay; type: functional, cell-based; details: HCT-15, 72 h
HCT-116 [18] = test: Antiproliferative activity against human HCT116 cells expressing p53 gene after 72 hrs by proliferative assay; type: functional, cell-based; details: HCT-116, 72 h
K562 [19] = test: Antiproliferative activity against p53 deficient human K562 cells after 72 hrs; type: functional, cell-based; details: K562, 72 h
HeLa [20] = test: Antiproliferative activity against p53 deficient human HeLa cells after 72 hrs; type: functional, cell-based
OVCAR-8 [21] = test: Antiproliferative activity against p53 deficient human OVCAR8 cells after 72 hrs by proliferative assay; type: functional, cell-based; details: OVCAR-8, 72 h
K562 [22] = test: Induction of cell cycle arrest in p53 deficient human K562 cells assessed as accumulation at subG1 phase at 0.1 uM after 24hrs by FACS analysis; type: functional
HeLa [23] = test: Induction of cell cycle arrest in p53 deficient human HeLa cells assessed as assessed as accumulation at subG1 phase at 0.1 uM after 24hrs by FACS analysis; type: functional
[24] = Induction of cell cycle arrest in p53 deficient human HCT116-E6 cells assessed as accumulation at subG1 phase at 0.1 uM after 24hrs by FACS analysis; type: functional
HCT-116 [25] = test: Induction of cell cycle arrest in human HCT116 cells expressing p53 gene assessed as accumulation at subG1 phase at 0.1 uM after 24hrs by FACS analysis; type: functional
SF-539 [26] = test: Induction of cell cycle arrest in human SF539 cells expressing p53 gene assessed as accumulation at subG1 phase at 0.1 uM after 24hrs by FACS analysis; type: functional
SF-539 [27] = test: Antiproliferative activity against human SF539 cells expressing p53 gene after 72 hrs by proliferative assay; type: functional, cell-based; details: SF-539, 72 h
[28] = Antiproliferative activity against p53 deficient human A2780/E6 cells after 72 hrs by proliferative assay; type: functional, cell-based; details: A2780/E6, 72 h
NHDF [29] = test: Induction of cell cycle arrest in NHDF expressing p53 gene assessed as accumulation at subG1 phase at 0.1 uM after 24hrs by FACS analysis; type: cell-based; details: human
A2780 [30] = test: Antiproliferative activity against human A2780 cells expressing p53 gene after 72 hrs by proliferative assay; type: functional, cell-based; details: A2780, 72 h
[31] = Antiproliferative activity against p53 deficient human HCT116/E6 cells after 72 hrs by proliferative assay; type: functional, cell-based; details: HCT116-E6, 72 h
MCF7 [32] = test: Antiproliferative activity against human MCF7 cells expressing p53 gene after 72 hrs by proliferative assay; type: functional, cell-based; details: MCF7, 72 h
Jurkat [33] = test: Induction of cell cycle arrest in p53 deficient human Jurkat cells assessed as accumulation at subG1 phase at 0.1 uM after 24hrs by FACS analysis; type: functional
NHDF [34] = test: Antiproliferative activity against NHDF expressing p53 gene after 72 hrs by proliferative assay; type: cell-based; details: Homo sapiens
OVCAR-8 [35] = test: Induction of cell cycle arrest in p53 deficient human OVCAR8 cells assessed as accumulation at subG1 phase at 100 uM after 24hrs by FACS analysis; type: functional
[36] = Induction of cell cycle arrest in p53 deficient human A2780/E6 cells as accumulation at subG1 phase at 100 uM after 24hrs by FACS analysis; type: functional
NHDF [37] = test: Induction of cell cycle arrest in NHDF expressing p53 gene assessed as accumulation at subG1 phase at 100 uM after 24hrs by FACS analysis; type: cell-based; details: human
COLO 205 [38] = test: Induction of cell cycle arrest in p53 deficient human COLO205 cells assessed as accumulation at subG1 phase at 100 uM after 24hrs by FACS analysis; type: functional
HCT-116 [39] = test: Induction of cell cycle arrest in human HCT116 cells expressing p53 gene assessed as accumulation at subG1 phase at 100 uM after 24hrs by FACS analysis; type: functional
MCF7 [40] = test: Induction of cell cycle arrest in human MCF7 cells expressing p53 gene assessed as accumulation at subG1 phase at 100 uM after 24hrs by FACS analysis; type: functional
A2780 [41] = test: Induction of cell cycle arrest in human A2780 cells expressing p53 gene assessed as accumulation at subG1 phase at 100 uM after 24hrs by FACS analysis; type: functional
PC-3 [42] = test: Induction of cell cycle arrest in human PC3 cells expressing p53 gene assessed as accumulation at subG1 phase at 100 uM after 24hrs by FACS analysis; type: functional
K562 [43] = test: Induction of cell cycle arrest in p53 deficient human K562 cells assessed as accumulation at subG1 phase at 100 uM after 24hrs by FACS analysis; type: functional
SF-268 [44] = test: Induction of cell cycle arrest in p53 deficient human SF268 cells assessed as accumulation at subG1 phase at 100 uM after 24 hrs FACS analysis; type: functional
SF-539 [45] = test: Induction of cell cycle arrest in human SF539 cells expressing p53 gene assessed as accumulation at subG1 phase at 100 uM after 24hrs by FACS analysis; type: functional
SW480 [46] = test: Induction of cell cycle arrest in p53 deficient human SW480 cells assessed as accumulation at subG1 phase at 100 uM after 24hrs by FACS analysis; type: functional
HCT-15 [47] = test: Induction of cell cycle arrest in human HCT15 cells expressing p53 gene assessed as accumulation at subG1 phase at 100 uM after 24hrs by FACS analysis; type: functional
U2OS [48] = test: Induction of cell cycle arrest in human U2OS cells expressing p53 gene assessed as accumulation at subG1 phase at 100 uM after 24hrs by FACS analysis; type: functional
Jurkat [49] = test: Induction of cell cycle arrest in p53 deficient human Jurkat cells assessed as accumulation at subG1 phase at 100 uM after 24hrs by FACS analysis; type: functional
HeLa [50] = test: Induction of cell cycle arrest in p53 deficient human HeLa cells assessed as assessed as accumulation at subG1 phase at 100 uM after 24hrs by FACS analysis; type: functional
[51] = Induction of cell cycle arrest in p53 deficient human HCT116-E6 cells assessed as accumulation at subG1 phase at 100 uM after 24hrs by FACS analysis; type: functional
A2780 [52] = test: Induction of apoptosis in human A2780 cells assessed as appearance of Mcl1 protein level after 24 hrs; type: functional, cell-based

Nc1ccn([C@@H]2O[C@H](CO)[C@@H](O)C2(F)F)c(=O)n1 [GEMCITABINE]
Activity (HCT-15 [1]): 3%
IC50 (U2OS [2]): 0.0907 µM
Activity (SF-268 [3]): <3%
Activity [4]: <3%
IC50 (COLO 205 [5]): 0.0514 µM
IC50 (SW480 [6]): 0.0136 µM
Activity (SW480 [7]): <3%
Activity (A2780 [8]): <3%
Activity (U2OS [9]): <3%
IC50 (PC-3 [10]): 0.0026 µM
Activity (MCF7 [11]): <3%
Activity (PC-3 [12]): <3%
IC50 (Jurkat [13]): 0.0453 µM
Activity (COLO 205 [14]): <3%
IC50 (SF-268 [15]): 0.0103 µM
Activity (OVCAR-8 [16]): <3%
IC50 (HCT-15 [17]): 0.0099 µM
IC50 (HCT-116 [18]): 0.0097 µM
IC50 (K562 [19]): 0.746 µM
IC50 (HeLa [20]): > 10 µM
IC50 (OVCAR-8 [21]): 0.0026 µM
Activity (K562 [22]): <3%
Activity (HeLa [23]): <3%
Activity [24]: <3%
Activity (HCT-116 [25]): <3%
Activity (SF-539 [26]): <3%
IC50 (SF-539 [27]): 0.0198 µM
IC50 [28]: 0.0026 µM
Activity (NHDF [29]): < 3%
IC50 (A2780 [30]): 0.0166 µM
IC50 [31]: 0.896 µM
IC50 (MCF7 [32]): 0.0803 µM
Activity (Jurkat [33]): >20%
IC50 (NHDF [34]): 0.0221 µM

O=c1[nH]cc(F)c(=O)[nH]1 [FLUOROURACIL]
Activity (OVCAR-8 [35]): <3%
IC50 (U2OS [2]): 13.2 µM
Activity [36]: <3%
Activity (NHDF [37]): < 3%
Activity (COLO 205 [38]): <3%
Activity (HCT-116 [39]): 10%
Activity (MCF7 [40]): <3%
IC50 (COLO 205 [5]): 11.6 µM
IC50 (SW480 [6]): 26.3 µM
IC50 (PC-3 [10]): 13.8 µM
Activity (A2780 [41]): <3%
Activity (PC-3 [42]): <3%
IC50 (Jurkat [13]): 87.7 µM
IC50 (SF-268 [15]): 88 µM
Activity (K562 [43]): <3%
IC50 (HCT-15 [17]): 18.2 µM
Activity (SF-268 [44]): <3%
IC50 (HCT-116 [18]): 6.36 µM
IC50 (K562 [19]): > 100 µM
IC50 (HeLa [20]): > 100 µM
IC50 (OVCAR-8 [21]): 96.4 µM
Activity (SF-539 [45]): <3%
IC50 (SF-539 [27]): 50.1 µM
IC50 [28]: 38.7 µM
Activity (SW480 [46]): <3%
Activity (HCT-15 [47]): <3%
IC50 (A2780 [30]): 7.21 µM
IC50 [31]: 28.9 µM
Activity (U2OS [48]): <3%
Activity (Jurkat [49]): <3%
Activity (HeLa [50]): <3%
IC50 (MCF7 [32]): 26.7 µM
Activity [51]: <3%
IC50 (NHDF [34]): 14.7 µM

CN1CC[C@H](c2c(O)cc(O)c3c(=O)cc(-c4ccccc4Cl)oc23)[C@H](O)C1
inhibition (A2780 [52]): Active
